Assay results as given in patent US20100137449A1, “SUBSTITUTED 1,3-CYCLOPENTADIONE MULTI-TARGET PROTEIN KINASE MODULATORS OF CANCER, ANGIOGENESIS AND THE INFLAMMATORY PATHWAYS ASSOCIATED THEREWITH” (METAPROTEOMICS, LLC, priority 2007, published 2010).

What was measured:
Test in all cases: KinaseProfiler Assay
BTK(h) = BTK(h) (Homo sapiens, UniProt Q06187)
EphA3(h) = molecular target: T1, EphA3(h) (Homo sapiens, UniProt P29320)
T1 sequence (P29320 21-983): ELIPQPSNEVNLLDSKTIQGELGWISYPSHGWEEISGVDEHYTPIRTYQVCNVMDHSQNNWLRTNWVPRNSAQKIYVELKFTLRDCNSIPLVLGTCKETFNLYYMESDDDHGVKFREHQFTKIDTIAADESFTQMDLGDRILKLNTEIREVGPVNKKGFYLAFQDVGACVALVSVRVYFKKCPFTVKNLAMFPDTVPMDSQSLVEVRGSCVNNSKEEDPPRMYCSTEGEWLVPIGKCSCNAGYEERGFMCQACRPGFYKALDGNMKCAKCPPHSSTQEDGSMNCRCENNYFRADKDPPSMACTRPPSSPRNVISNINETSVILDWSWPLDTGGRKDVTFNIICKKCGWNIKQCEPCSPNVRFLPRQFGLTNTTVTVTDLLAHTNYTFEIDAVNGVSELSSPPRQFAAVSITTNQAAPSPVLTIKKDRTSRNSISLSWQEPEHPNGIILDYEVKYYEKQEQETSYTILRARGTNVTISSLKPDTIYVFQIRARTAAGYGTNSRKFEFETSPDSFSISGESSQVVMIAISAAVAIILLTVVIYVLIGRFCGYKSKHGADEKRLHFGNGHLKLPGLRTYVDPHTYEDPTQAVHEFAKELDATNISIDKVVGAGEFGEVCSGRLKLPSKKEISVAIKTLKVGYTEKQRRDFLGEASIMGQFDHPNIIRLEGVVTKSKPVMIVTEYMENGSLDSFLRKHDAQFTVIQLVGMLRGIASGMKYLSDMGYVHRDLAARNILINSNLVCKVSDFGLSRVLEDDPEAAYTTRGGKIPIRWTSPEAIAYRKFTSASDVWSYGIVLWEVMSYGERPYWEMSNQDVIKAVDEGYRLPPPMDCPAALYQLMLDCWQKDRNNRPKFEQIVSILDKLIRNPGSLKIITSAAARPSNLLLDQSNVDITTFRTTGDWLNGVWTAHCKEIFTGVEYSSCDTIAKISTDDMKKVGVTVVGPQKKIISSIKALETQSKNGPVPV

IR(h) = IR(h) (Homo sapiens, UniProt P06213)
NEK3(h) = molecular target: T2, NEK3(h) (Homo sapiens, UniProt P51956)
T2 sequence (P51956 1-506): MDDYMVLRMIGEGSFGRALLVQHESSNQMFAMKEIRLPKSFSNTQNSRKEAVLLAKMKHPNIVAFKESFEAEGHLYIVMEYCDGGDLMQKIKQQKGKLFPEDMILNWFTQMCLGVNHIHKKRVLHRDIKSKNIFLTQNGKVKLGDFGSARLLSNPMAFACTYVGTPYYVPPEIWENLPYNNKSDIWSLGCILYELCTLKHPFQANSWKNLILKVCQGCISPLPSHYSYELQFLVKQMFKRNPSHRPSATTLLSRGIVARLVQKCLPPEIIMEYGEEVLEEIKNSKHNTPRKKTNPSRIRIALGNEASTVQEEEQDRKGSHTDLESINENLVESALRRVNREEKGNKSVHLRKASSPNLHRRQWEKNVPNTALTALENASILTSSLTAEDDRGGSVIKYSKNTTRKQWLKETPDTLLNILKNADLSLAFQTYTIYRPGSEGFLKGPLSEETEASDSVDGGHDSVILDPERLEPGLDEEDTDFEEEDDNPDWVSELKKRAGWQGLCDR

SRPK1(h) = SRPK1(h) (Homo sapiens, UniProt Q96SB4)
ZAP-70(h) = molecular target: T3, ZAP-70(h) (Homo sapiens, UniProt P43403)
T3 sequence (P43403 1-619): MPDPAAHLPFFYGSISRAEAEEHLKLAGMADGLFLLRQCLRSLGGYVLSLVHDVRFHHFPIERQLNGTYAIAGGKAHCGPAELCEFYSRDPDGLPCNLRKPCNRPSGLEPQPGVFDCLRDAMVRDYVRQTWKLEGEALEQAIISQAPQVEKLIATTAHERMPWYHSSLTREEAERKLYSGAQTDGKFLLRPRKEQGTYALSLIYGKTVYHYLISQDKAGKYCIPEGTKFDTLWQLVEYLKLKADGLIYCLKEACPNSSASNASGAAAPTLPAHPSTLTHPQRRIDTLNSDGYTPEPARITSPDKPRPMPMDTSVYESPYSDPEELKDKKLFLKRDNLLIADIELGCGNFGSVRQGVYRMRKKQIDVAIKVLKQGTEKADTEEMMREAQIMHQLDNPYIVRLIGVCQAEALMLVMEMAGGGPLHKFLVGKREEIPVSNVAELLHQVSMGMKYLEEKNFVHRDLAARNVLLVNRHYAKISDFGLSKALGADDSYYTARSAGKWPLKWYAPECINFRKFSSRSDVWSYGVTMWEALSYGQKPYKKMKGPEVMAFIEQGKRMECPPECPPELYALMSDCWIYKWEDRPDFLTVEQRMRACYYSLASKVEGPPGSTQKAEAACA

Chain of SRPK1(h) (Q96SB4 whole entry): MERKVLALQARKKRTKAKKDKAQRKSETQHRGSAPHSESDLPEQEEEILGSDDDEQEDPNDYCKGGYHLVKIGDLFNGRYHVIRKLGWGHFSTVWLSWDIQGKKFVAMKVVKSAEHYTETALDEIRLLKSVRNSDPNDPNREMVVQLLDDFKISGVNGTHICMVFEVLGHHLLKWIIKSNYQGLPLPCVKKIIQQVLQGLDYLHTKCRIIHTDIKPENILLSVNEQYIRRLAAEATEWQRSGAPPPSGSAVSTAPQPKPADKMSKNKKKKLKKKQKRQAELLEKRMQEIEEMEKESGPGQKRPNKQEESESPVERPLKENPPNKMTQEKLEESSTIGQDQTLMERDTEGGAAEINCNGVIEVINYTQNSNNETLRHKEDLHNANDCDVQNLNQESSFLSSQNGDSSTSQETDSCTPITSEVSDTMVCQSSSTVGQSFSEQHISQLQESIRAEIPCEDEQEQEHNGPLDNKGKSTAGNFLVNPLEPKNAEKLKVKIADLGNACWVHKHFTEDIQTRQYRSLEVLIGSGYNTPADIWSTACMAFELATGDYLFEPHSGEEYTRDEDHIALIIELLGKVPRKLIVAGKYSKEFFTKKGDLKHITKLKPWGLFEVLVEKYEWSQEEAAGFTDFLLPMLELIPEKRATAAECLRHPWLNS
Chain of BTK(h) (Q06187 whole entry): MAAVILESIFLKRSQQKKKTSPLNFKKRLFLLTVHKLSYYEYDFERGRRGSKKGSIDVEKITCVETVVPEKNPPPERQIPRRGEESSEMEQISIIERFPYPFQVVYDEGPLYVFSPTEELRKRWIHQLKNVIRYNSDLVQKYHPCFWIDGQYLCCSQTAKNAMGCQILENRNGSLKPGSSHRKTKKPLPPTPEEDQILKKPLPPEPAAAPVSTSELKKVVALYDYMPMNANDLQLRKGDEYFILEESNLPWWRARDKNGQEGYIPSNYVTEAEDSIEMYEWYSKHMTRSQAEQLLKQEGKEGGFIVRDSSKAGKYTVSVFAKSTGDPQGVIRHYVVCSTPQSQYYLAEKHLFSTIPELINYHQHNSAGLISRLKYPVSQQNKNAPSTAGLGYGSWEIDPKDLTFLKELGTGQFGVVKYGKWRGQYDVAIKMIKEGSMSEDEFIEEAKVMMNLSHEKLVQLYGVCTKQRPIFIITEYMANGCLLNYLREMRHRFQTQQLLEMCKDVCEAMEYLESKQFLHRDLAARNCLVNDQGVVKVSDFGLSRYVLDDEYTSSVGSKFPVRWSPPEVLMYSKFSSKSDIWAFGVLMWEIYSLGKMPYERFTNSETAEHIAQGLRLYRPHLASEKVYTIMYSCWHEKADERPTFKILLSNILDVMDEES
Chain of IR(h) (P06213 28-1382): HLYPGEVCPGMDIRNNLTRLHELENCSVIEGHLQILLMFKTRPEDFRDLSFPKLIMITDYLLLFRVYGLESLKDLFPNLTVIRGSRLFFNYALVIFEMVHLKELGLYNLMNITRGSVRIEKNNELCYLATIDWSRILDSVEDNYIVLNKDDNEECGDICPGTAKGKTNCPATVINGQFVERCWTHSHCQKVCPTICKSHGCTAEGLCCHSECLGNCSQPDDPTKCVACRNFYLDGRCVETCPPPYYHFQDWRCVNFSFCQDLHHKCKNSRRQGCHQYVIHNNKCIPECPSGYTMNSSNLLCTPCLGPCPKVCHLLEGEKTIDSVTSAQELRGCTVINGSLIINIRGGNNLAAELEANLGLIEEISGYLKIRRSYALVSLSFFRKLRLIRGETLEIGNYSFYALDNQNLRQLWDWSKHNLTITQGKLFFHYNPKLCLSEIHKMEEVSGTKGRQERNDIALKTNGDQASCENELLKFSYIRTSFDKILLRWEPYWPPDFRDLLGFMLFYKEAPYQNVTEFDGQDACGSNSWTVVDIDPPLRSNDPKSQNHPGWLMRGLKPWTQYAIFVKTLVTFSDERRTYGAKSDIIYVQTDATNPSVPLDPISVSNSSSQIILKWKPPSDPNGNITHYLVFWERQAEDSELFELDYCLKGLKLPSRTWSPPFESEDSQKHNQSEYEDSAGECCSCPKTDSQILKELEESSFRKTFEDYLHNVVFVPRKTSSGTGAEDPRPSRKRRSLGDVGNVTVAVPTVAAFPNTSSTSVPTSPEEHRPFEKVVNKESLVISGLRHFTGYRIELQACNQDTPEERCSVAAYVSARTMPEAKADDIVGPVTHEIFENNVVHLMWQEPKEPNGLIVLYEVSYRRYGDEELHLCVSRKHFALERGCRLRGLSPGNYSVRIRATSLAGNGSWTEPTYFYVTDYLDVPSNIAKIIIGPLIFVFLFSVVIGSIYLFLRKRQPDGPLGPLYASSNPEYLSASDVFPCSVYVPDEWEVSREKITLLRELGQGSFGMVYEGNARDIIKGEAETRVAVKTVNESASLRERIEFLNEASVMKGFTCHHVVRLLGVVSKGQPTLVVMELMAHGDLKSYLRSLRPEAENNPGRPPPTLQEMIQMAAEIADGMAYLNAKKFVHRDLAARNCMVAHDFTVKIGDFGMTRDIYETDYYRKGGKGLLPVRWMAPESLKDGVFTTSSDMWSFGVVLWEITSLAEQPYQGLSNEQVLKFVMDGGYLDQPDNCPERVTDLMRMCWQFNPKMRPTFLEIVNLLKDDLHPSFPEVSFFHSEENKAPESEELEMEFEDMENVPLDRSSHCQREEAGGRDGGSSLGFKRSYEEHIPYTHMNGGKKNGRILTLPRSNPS

In the case of CC(C)CCC(=O)[C@]1(O)C(O)=C(C(=O)C(C)C)C(=O)[C@H]1CCC(C)C [TH2, tetrahydroiso-cohumulone], the kinase inhibition (BTK(h); 1 μg/ml) is reported as 98% of control, the kinase inhibition (BTK(h); 5 μg/ml) is reported as 96% of control and the kinase inhibition (BTK(h); 25 μg/ml) is reported as 67% of control. The kinase inhibition (BTK(h); 50 μg/ml) was 59% of control, the kinase inhibition (BTK(h); 100 μg/ml) was 47% of control and the kinase inhibition (EphA3(h); 1 μg/ml) was 93% of control. For the same molecule, the kinase inhibition (EphA3(h); 5 μg/ml) was 91% of control, the kinase inhibition (EphA3(h); 25 μg/ml) was 98% of control and the kinase inhibition (EphA3(h); 50 μg/ml) was 87% of control. For the same molecule, the kinase inhibition (EphA3(h); 100 μg/ml) was 84% of control, the kinase inhibition (IR(h); 1 μg/ml) was 96% of control and the kinase inhibition (IR(h); 5 μg/ml) was 100% of control. The kinase inhibition (IR(h); 25 μg/ml) was 80% of control, the kinase inhibition (IR(h); 50 μg/ml) was 75% of control and the kinase inhibition (IR(h); 100 μg/ml) was 79% of control. The kinase inhibition (NEK3(h); 1 μg/ml) was 99% of control, the kinase inhibition (NEK3(h); 5 μg/ml) was 102% of control and the kinase inhibition (NEK3(h); 25 μg/ml) was 97% of control. For the same molecule, the kinase inhibition (NEK3(h); 50 μg/ml) was 94% of control, the kinase inhibition (NEK3(h); 100 μg/ml) was 92% of control and the kinase inhibition (SRPK1(h); 1 μg/ml) was 47% of control. The kinase inhibition (SRPK1(h); 5 μg/ml) was 89% of control, the kinase inhibition (SRPK1(h); 25 μg/ml) was 61% of control and the kinase inhibition (SRPK1(h); 50 μg/ml) was 53% of control. For the same molecule, the kinase inhibition (SRPK1(h); 100 μg/ml) was 45% of control, the kinase inhibition (ZAP-70(h); 1 μg/ml) was 125% of control and the kinase inhibition (ZAP-70(h); 5 μg/ml) was 110% of control. For the same molecule, the kinase inhibition (ZAP-70(h); 25 μg/ml) was 124% of control, the kinase inhibition (ZAP-70(h); 50 μg/ml) was 124% of control and the kinase inhibition (ZAP-70(h); 100 μg/ml) was 107% of control.
